Assays:
HIV-1 RT wild-type (WT) = molecular target: T1, HIV-1 RT wild-type (WT) (Human immunodeficiency virus type 1 group M subtype B, UniProt P03366); test: Reverse transcriptase (RT) assay, wild-type enzyme; format: biochemical
T1 construct: an HIV RT clone pKRT2 containing only the RT p66 gene regulated by the lac operon/trc promoter; made in house; host or cells: E. coli JM109, vector pKK233-2
Text: (§1) Among the enzymes for which Human Immunodeficiency Virus (HIV-1) encodes is a reverse transcriptase (1), so-named because it transcribes a DNA copy from an RNA template. This activity can be quantitatively measured in a cell-free enzyme assay and is based upon the observation that reverse transcriptase is able to use a synthetic template poly r(C) primed with a biotinylated oligo d(G) to transcribe a radio-labelled DNA strand utilising 3H-dGTP as a substrate. The assay described below utilises the wild-type enzyme (which is the predominant form of the enzyme observed in patients infected with HIV-1) and can also be used with mutant RT enzymes (for example, Y181C, prepared by site-directed mutagenesis in which the tyrosine residue at codon 181 has been replaced by a cysteine residue) in analogous assay conditions. This assay allows compounds to be evaluated for their effectiveness at inhibiting the mutant enzymes.
(§2) Some HIV-1 IIIB clone BH10 RT mutants were provided by Dr. C.-K. Shih (Boehringer Ingelheim Pharmaceutials Inc., U.S.A.) in the vector pKK233-2 (Pharmacia). Briefly an HIV RT clone pKRT2 containing only the RT p66 gene regulated by the lac operon/trc promoter was obtained from Dr. W. Summers (Yale University) (2). A variety of specific amino acid substitutions were introduced into the wild-type RT gene by site-directed mutagenesis. RT clones were subcloned into the pKK233-2 bacterial expression vector. Clones provided included wild-type, Val106Ala, Tyr181Cys, Tyr188Cys, Tyr188Leu, Gly190Ala and Pro236Leu. Others were made in-house by site-directed mutagenesis of the pKK233-2 RT clones including Lys103Asn, Lys103Asn/Tyr181Cys, Lys103Asn/Leu100Ile, Lys103Asn/Pro225His, and Lys103Asn/Val108Ile.
(§3) Purification of recombinant reverse transcriptase was performed using a combination of methods previously described (3). A single colony from a fresh plate of transformed JM109 cells was used to initiate growth of a pre-culture grown o/n at 37° C. Two liters of growth medium were inoculated with this pre-culture. At OD600˜1.5 (5-6 h at 37° C.), RT gene expression was induced with IPTG (1 mM final), and the fermentation was continued for a few more hours at 37° C. After centrifugation, supernatants were discarded while cell pellets were pooled and stored at −80° C. until purification. Cells were thawed at 4° C. overnight and suspended in lysis buffer (MES 50 mM pH 6, EDTA 1 mM, 10% v/v glyerol, 0.02% w/v OBG, 0.02% w/v sodium azide). Lysozyme was added and the mixture was incubated on ice for 40 minutes. After homogenization using a bounce in presence of lysozyme and sonication, the cells were centrifuged for 30 minutes. Supernatant (S1) was saved and stored at 4° C. The centrifuged pellet was resuspended in extraction buffer (MES 50 mM pH 6, KPO4 50 mM pH 6, KCl 100 mM, 10% v/v glycerol, 0.02% w/v OBG, 0.02% w/v sodium axide) and stirred for 30 minutes at 4° C. This second mixture was centrifuged again and the supernatant (S2) was saved. The above procedure was repeated 2 more times saving supernatants S3 and S4 and one last extraction was performed overnight (S5). Polymin P (0.005% final) was added to the combined supernatants to remove nucleic acids. This solution was stirred for 75 minutes at 4° C. and centrifuged for 1 h. The supernatant (SS1) was precipitated on ice with 20% w/v ammonium sulfate and stirred for 1 h at 4° C. The mixture was then centrifuged and the resulting supernatant (SS2) was precipitated with additional 40% w/v ammonium sulfate (60% total), stirred for 1 h and centrifuged again. The final pellet (P1) was stored overnight at 4° C. before undergoing purification the following day. All steps of the purification were performed at 4° C. unless otherwise stated.
(§4) Pellet (P1) was resuspended into MES 50 mM pH 6, KPO4 10 mM pH 6, KCl 100 mM, 10% v/v glycerol, 0.02% w/v OBG, 0.02% w/v sodium azide. The suspension was dialysis against the same buffer overnight using 12-14 kD MWCO dialysis tubing. […]

HIV-1 RT K103N = molecular target: T2, HIV-1 RT K103N (Human immunodeficiency virus type 1 group M subtype B, UniProt P03366, K702N); test: Reverse transcriptase (RT) assay, K103N mutant; format: biochemical
T2 construct: an HIV RT clone pKRT2 containing only the RT p66 gene regulated by the lac operon/trc promoter; made in house; host or cells: E. coli JM109, vector pKK233-2
Text: as §1, §2, §3, §4

HIV-1 RT Y181C = molecular target: T3, HIV-1 RT Y181C (Human immunodeficiency virus type 1 group M subtype B, UniProt P03366, Y780C); test: Reverse transcriptase (RT) assay, Y181C mutant; format: biochemical
T3 construct: an HIV RT clone pKRT2 containing only the RT p66 gene regulated by the lac operon/trc promoter; made in house; host or cells: E. coli JM109, vector pKK233-2
Text: as §1, §2, §3, §4

HIV-1 RT V106A = molecular target: T4, HIV-1 RT V106A (Human immunodeficiency virus type 1 group M subtype B, UniProt P03366, V705A); test: Reverse transcriptase (RT) assay, V106A mutant; format: biochemical
T4 construct: an HIV RT clone pKRT2 containing only the RT p66 gene regulated by the lac operon/trc promoter; made in house; host or cells: E. coli JM109, vector pKK233-2
Text: as §1, §2, §3, §4

HIV-1 RT Y188L = molecular target: T5, HIV-1 RT Y188L (Human immunodeficiency virus type 1 group M subtype B, UniProt P03366, Y787L); test: Reverse transcriptase (RT) assay, Y188L mutant; format: biochemical
T5 construct: an HIV RT clone pKRT2 containing only the RT p66 gene regulated by the lac operon/trc promoter; made in house; host or cells: E. coli JM109, vector pKK233-2
Text: as §1, §2, §3, §4

HIV-1 RT K103N/Y181C = molecular target: T6, HIV-1 RT K103N/Y181C (Human immunodeficiency virus type 1 group M subtype B, UniProt P03366, K702N/Y780C); test: Reverse transcriptase (RT) assay, K103N/Y181C mutant; format: biochemical
T6 construct: an HIV RT clone pKRT2 containing only the RT p66 gene regulated by the lac operon/trc promoter; made in house; host or cells: E. coli JM109, vector pKK233-2
Text: as §1, §2, §3, §4

HIV-1 RT K103N/P225H = molecular target: T7, HIV-1 RT K103N/P225H (Human immunodeficiency virus type 1 group M subtype B, UniProt P03366, K702N/P824H); test: Reverse transcriptase (RT) assay, K103N/P225H mutant; format: biochemical
T7 construct: an HIV RT clone pKRT2 containing only the RT p66 gene regulated by the lac operon/trc promoter; made in house; host or cells: E. coli JM109, vector pKK233-2
Text: as §1, §2, §3, §4

HIV-1 RT K103N/V108I = molecular target: T8, HIV-1 RT K103N/V108I (Human immunodeficiency virus type 1 group M subtype B, UniProt P03366, K702N/V707I); test: Reverse transcriptase (RT) assay, K103N/V108I mutant; format: biochemical
T8 construct: an HIV RT clone pKRT2 containing only the RT p66 gene regulated by the lac operon/trc promoter; made in house; host or cells: E. coli JM109, vector pKK233-2
Text: as §1, §2, §3, §4

HIV-1 RT K103N/L100I = molecular target: T9, HIV-1 RT K103N/L100I (Human immunodeficiency virus type 1 group M subtype B, UniProt P03366, K702N/L699I); test: Reverse transcriptase (RT) assay, K103N/L100I mutant; format: biochemical
T9 construct: an HIV RT clone pKRT2 containing only the RT p66 gene regulated by the lac operon/trc promoter; made in house; host or cells: E. coli JM109, vector pKK233-2
Text: as §1, §2, §3, §4

[1] = system: HIV coding for wild-type reverse transcriptase (WT RT); test: ELISA (p24) assay of HIV replication in C8166 cell culture, wild-type RT virus; format: cell-based, HIV-1; details: Human immunodeficiency virus 1, C8166, 72 h, read-out: EC50 WT RT
Description: (§5) Compounds of the invention were tested for their ability to inhibit HIV replication in cell culture in a 96-well plate assay. Complete RPMI 1640, consisting of RPMI 1640+10% fetal bovine serum, 10 μg/ml gentamycin and 10 μM β-mercaptoethanol was used for dilution of the compound as well as cell growth medium. The T lymphocyte cell line C8166 was infected at a multiplicity of infection of 0.001 with viruses coding for wild-type and mutant reverse transcriptase. Cells were then incubated for three days in the presence of serial dilutions of the compounds of the invention. The supernatant was pooled from eight replica wells and the concentration of extracellular p24 was determined using a commercially available HIV-1 p24 antigen assay kit (Beckman-Coulter®). The level of inhibition (% inhibition) was calculated with the following equation: [formula]

[2] = system: HIV coding for mutant reverse transcriptase K103N; test: ELISA (p24) assay of HIV replication in C8166 cell culture, K103N virus; format: cell-based, HIV-1; details: Human immunodeficiency virus 1, C8166, 72 h, read-out: EC50 K103N
Description: as §5

[3] = system: HIV coding for mutant reverse transcriptase Y181C; test: ELISA (p24) assay of HIV replication in C8166 cell culture, Y181C virus; format: cell-based, HIV-1; details: Human immunodeficiency virus 1, C8166, 72 h, read-out: EC50 Y181C
Description: as §5

[4] = system: HIV coding for mutant reverse transcriptase V106A; test: ELISA (p24) assay of HIV replication in C8166 cell culture, V106A virus; format: cell-based, HIV-1; details: Human immunodeficiency virus 1, C8166, 72 h, read-out: EC50 V106A
Description: as §5

[5] = system: HIV coding for mutant reverse transcriptase K103N/P225H; test: ELISA (p24) assay of HIV replication in C8166 cell culture, K103N/P225H virus; format: cell-based, HIV-1; details: Human immunodeficiency virus 1, C8166, 72 h, read-out: EC50 K103N/P225H
Description: as §5

[6] = system: HIV coding for mutant reverse transcriptase K103N/V108I; test: ELISA (p24) assay of HIV replication in C8166 cell culture, K103N/V108I virus; format: cell-based, HIV-1; details: Human immunodeficiency virus 1, C8166, 72 h, read-out: EC50 K103N/V108I
Description: as §5

[7] = system: HIV coding for mutant reverse transcriptase K103N/L100I; test: ELISA (p24) assay of HIV replication in C8166 cell culture, K103N/L100I virus; format: cell-based, HIV-1; details: Human immunodeficiency virus 1, C8166, 72 h, read-out: EC50 K103N/L100I
Description: as §5

Structure (SMILES): CCN1c2ncc(CCOc3cc[n+]([O-])c4ccccc34)cc2C(=O)Nc2c(C)ccnc21 [compound 12, 5,11-Dihydro-11-ethyl-4-methyl-8-{2-{(1-oxido-4-quinolinyl)oxy}ethyl}-6H-dipyrido[3,2-b:2′,3′-e][1,4]diazepin-6-one]
- IC50 (HIV-1 RT wild-type (WT)): 12 nM
- IC50 (HIV-1 RT K103N): 31 nM
- IC50 (HIV-1 RT Y181C): 38 nM
- IC50 (HIV-1 RT V106A): 121 nM
- IC50 (HIV-1 RT Y188L): > 10 µM
- IC50 (HIV-1 RT K103N/Y181C): 212 nM
- IC50 (HIV-1 RT K103N/P225H): 38 nM
- IC50 (HIV-1 RT K103N/V108I): 75 nM
- IC50 (HIV-1 RT K103N/L100I): 124 nM
- EC50 [1]: 0.26 nM
- EC50 [2]: 2.8 nM
- EC50 [3]: 2.7 nM
- EC50 [4]: 12.4 nM
- EC50 [5]: 1.5 nM
- EC50 [6]: 5 nM
- EC50 [7]: 2.9 nM
